Calls of active or inactive are those of the source. No cut-off for these calls is given here.
Key:
[1] = tested on: SF-295; test: Cytotoxicity against human SF295 cells assessed as cell growth at 0.1 uM after 48 hrs by sulforhodamine B assay relative to control; format: functional; conditions: SF-295, 48 h, read-out: Activity
[2] = tested on: MCF7; test: Downregulation of PI3K mRNA expression in human MCF7 cells at 2 uM after 48 hrs by qRT-PCR analysis; format: functional, cell-based
[3] = tested on: MCF7; test: Downregulation of mTOR protein expression in human MCF7 cells at 2 uM after 24 hrs by Western blot analysis; format: functional, cell-based
[4] = tested on: SF-295; test: Cytotoxicity against human SF295 cells assessed as cell growth at 100 uM after 48 hrs by sulforhodamine B assay relative to control; format: functional; conditions: SF-295, 48 h, read-out: Activity
[5] = tested on: SNB-75; test: Cytotoxicity against human SNB75 cells assessed as cell growth at 0.1 uM after 48 hrs by sulforhodamine B assay relative to control; format: functional; conditions: SNB-75, 48 h, read-out: Activity
[6] = tested on: MCF7; test: Downregulation of Akt1 mRNA expression in human MCF7 cells at 2 uM after 48 hrs by qRT-PCR analysis; format: functional, cell-based
[7] = tested on: MCF7; test: Cell cycle arrest in human MCF7 cells assessed as accumulation at S phase at 2 uM after 48 hrs by flow cytometric analysis (reference value: 57.7%); format: functional
[8] = tested on: SNB-75; test: Cytotoxicity against human SNB75 cells assessed as cell growth at 100 uM after 48 hrs by sulforhodamine B assay relative to control; format: functional; conditions: SNB-75, 48 h, read-out: Activity
[9] = tested on: SF-295; test: Cytotoxicity against human SF295 cells assessed as cell growth at 0.01 uM after 48 hrs by sulforhodamine B assay relative to control; format: functional; conditions: SF-295, 48 h, read-out: Activity
[10] = tested on: CAKI-1; test: Cytotoxicity against human Caki1 cells assessed as cell growth at 100 uM after 48 hrs by sulforhodamine B assay relative to control; format: functional; conditions: CAKI-1, 48 h, read-out: Activity
[11] = tested on: SNB-75; test: Cytotoxicity against human SNB75 cells assessed as cell growth at 10 uM after 48 hrs by sulforhodamine B assay relative to control; format: functional; conditions: SNB-75, 48 h, read-out: Activity
[12] = tested on: CAKI-1; test: Cytotoxicity against human Caki1 cells assessed as cell growth at 0.01 uM after 48 hrs by sulforhodamine B assay relative to control; format: functional; conditions: CAKI-1, 48 h, read-out: Activity
[13] = tested on: SF-295; test: Cytotoxicity against human SF295 cells assessed as cell growth at 10 uM after 48 hrs by sulforhodamine B assay relative to control; format: functional; conditions: SF-295, 48 h, read-out: Activity
[14] = tested on: SNB-75; test: Cytotoxicity against human SNB75 cells assessed as growth inhibition after 48 hrs by sulforhodamine B assay; format: functional; conditions: SNB-75, 48 h
[15] = tested on: CAKI-1; test: Cytotoxicity against human Caki1 cells assessed as cell growth at 10 uM after 48 hrs by sulforhodamine B assay relative to control; format: functional; conditions: CAKI-1, 48 h, read-out: Activity
[16] = tested on: SNB-75; test: Cytotoxicity against human SNB75 cells assessed as cell growth at 0.01 uM after 48 hrs by sulforhodamine B assay relative to control; format: functional; conditions: SNB-75, 48 h, read-out: Activity
[17] = tested on: SF-295; test: Cytotoxicity against human SF295 cells assessed as cell growth at 1 uM after 48 hrs by sulforhodamine B assay relative to control; format: functional; conditions: SF-295, 48 h, read-out: Activity
[18] = tested on: SF-295; test: Cytotoxicity against human SF295 cells assessed as growth inhibition after 48 hrs by sulforhodamine B assay; format: functional; conditions: SF-295, 48 h
[19] = tested on: CAKI-1; test: Cytotoxicity against human Caki1 cells assessed as cell growth at 1 uM after 48 hrs by sulforhodamine B assay relative to control; format: functional; conditions: CAKI-1, 48 h, read-out: Activity
[20] = tested on: SNB-75; test: Cytotoxicity against human SNB75 cells assessed as cell growth at 1 uM after 48 hrs by sulforhodamine B assay relative to control; format: functional; conditions: SNB-75, 48 h, read-out: Activity
[21] = tested on: MCF7; test: Downregulation of Akt protein expression in human MCF7 cells at 2 uM after 48 hrs by Alexa/DAPI staining-based immunofluorescence analysis; format: functional, cell-based
[22] = tested on: MCF7; test: Cell cycle arrest in human MCF7 cells assessed as accumulation at G2/M phase at 2 uM after 48 hrs by flow cytometric analysis (reference value: 8.1%); format: functional
[23] = tested on: CAKI-1; test: Cytotoxicity against human Caki1 cells assessed as cell growth at 0.1 uM after 48 hrs by sulforhodamine B assay relative to control; format: functional; conditions: CAKI-1, 48 h, read-out: Activity
[24] = tested on: MCF7; test: Induction of intrinsic apoptosis in human MCF7 cells assessed as effect on mitochondrial membrane depolarization by measuring mean fluorescence intensity at 2 uM after 18 hrs by DiOC6 staining-based FACS analysis (reference value: 463); format: functional
[25] = tested on: CAKI-1; test: Cytotoxicity against human Caki1 cells assessed as growth inhibition after 48 hrs by sulforhodamine B assay; format: functional; conditions: CAKI-1, 48 h
[26] = tested on: MCF7; test: Inhibition of PI3K in human MCF7 cells assessed as downregulation of phosphorylated Akt levels at 2 uM after 24 hrs by Western blot analysis; format: cell-based

## COc1ccc(-c2cc(/C=C/C(=O)c3ccc(OC)c(OC)c3)[nH]n2)cc1
[1]
  growth at 0.1 µM: 97%
[2]
  Activity: Active
[3]
  Activity: Active
[4]
  growth at 100 µM: -83%
[5]
  growth at 0.1 µM: 79%
[6]
  Activity: Active
[7]
  Activity: 38.9%
[8]
  growth at 100 µM: -100%
[9]
  growth at 0.01 µM: 98%
[10]
  growth at 100 µM: -70%
[11]
  growth at 10 µM: -53%
[12]
  growth at 0.01 µM: 98%
[13]
  growth at 10 µM: -33%
[14]
  GI50: 1.55 µM
  LC50 (concentration killing 50% of cells): 9.51 µM
  TGI: 3.84 µM
[15]
  growth at 10 µM: -64%
[16]
  growth at 0.01 µM: 88%
[17]
  growth at 1 µM: 88%
[18]
  GI50: 2.08 µM
  LC50: 22 µM
  TGI: 5.37 µM
[19]
  growth at 1 µM: 77%
[20]
  growth at 1 µM: 74%
[21]
  Activity: Active
[22]
  Activity: 16.5%
[23]
  growth at 0.1 µM: 96%
[24]
  Flu intensity: 355
[25]
  GI50: 1.55 µM
  LC50: 7.96 µM
  TGI: 3.52 µM
[26]
  phospho-Akt downregulation (active/inactive): Active

Source: ChEMBL document CHEMBL4138123, “Design, synthesis and biological evaluation of novel pyrazolochalcones as potential modulators of PI3K/Akt/mTOR pathway and inducers of apoptosis in breast cancer cells” (Eur J Med Chem, 2017)
